Assays:
[1] = system: ATL2/pS2 ERE-LUC reporter in HepG2 cells; assay: MOX-dependent transactivation by wild-type and mutant ERs, transient transfection, luciferase reporter; type: cell-based, human; settings: 10 nM MOX
[2] = system: putative ERE in the Bcl2 gene; assay: EMSA, ER binding to putative ERE in the Bcl2 gene; settings: summary statement
Description: (§1) Gel mobility shift assays were performed essentially as described [Zhang, 1999 #38]. Each 20 μl reaction contained 50 mM KCl, 15 mM Tris-HCl (pH 7.9), 4 mM dithiothreitol, 0.2 mM EDTA, 3 μg of poly(dIdC) and 10% glycerol; bovine serum albumin (BSA) was added to each sample for a total of 10 μg of protein. Free probe and protein-DNA complexes were quantitated using a phosphor imager and ImageQuant 5.0 (Molecular Dynamics, Inc., Sunnyvale, Calif.). The sequence of one DNA strand of each of the three probes (SEQ ID NOS:61–63) used for the gel mobility shift assays are presented in Table 31. The ERE or PAL sequences are underlined.
It therefore seemed possible that binding of wild-type ER to the pS2 ERE is based on strong binding of one monomer of the ER dimer to the cERE half site (aGGTCA; SEQ ID NO: 65) and weak non-specific interaction of the other ER monomer with the sequence at the other half site. To test this possibility, binding of wild-type and the ER mutants to a putative ERE in the Bcl2 gene was examined. Like pS2, Bcl2 contains a cERE half site, but also contains a second, different half site that deviates from the consensus sequence by one nucleotide.

cERE probe = assay: EMSA (gel mobility shift), ER binding to cERE probe; settings: CHO-S extracts
Description: (§2) CHO—S cells (Life-Technologies; Grand Island, N.Y.) were transfected using Lipofectamine 2000 (Life-Technologies). Transfection was performed according to the manufacturer's instructions, except cells were grown in 6-well plates coated with 1 ml of 0.1 mg/mL polylysine for 24 hours at 37° C. prior to transfection. One μg of CMV-hERα and 3 μg of pTZ18U carrier DNA were used for each well; DNA:Lipofectamine 2000 was 1:3. 17β-estradiol was added to a final concentration of 10 nM 1 hour before harvest. Whole cell extracts were prepared as described (Zhang et al., 1996) with a modified extraction buffer (50 m-M Tris-HCl, pH 7.5, 1.5 mM EDTA, 10 mM Na2MoO4, 0.5 M NaCl, 10% glycerol, 0.5 mM β-mercaptoethanol, 50 μg/ml leupeptin, 1 μg/ml pepstatin and 5 μg/ml aprotinin).
as §1
To compare binding of wild type hERα and the ER mutants to the EREs, protein titrations were performed. Increasing amounts of extracts containing equivalent levels of wild-type ER or ER mutants were incubated with the cERE. The ER:ERE complexes were then analyzed by EMSA. […] The mutants required 1.5–2.4-fold more extract to bind 50% of the cERE probe than wild-type ER. […] Even at the highest level of extract (8 μg), wild-type ER shifted only ˜15% of the pS2 probe.
FIG. 1 (Legend) A. Panel (i), Western blots of normalized whole cell extracts of wild type hERα and mutants from transfected CHO-S cells. Lane 1–13: mutants 4, 2, 57.1, 50.1, 15.3, wild type ER, 7.2, 6.2, 4.3, 3.1, 2.1, wild type, and 3M, respectively. Panel (ii), The three ERE sequences used in these studies. The nucleotides that differ from those in the consensus ERE (cERE) are underlined. Nucleotides in lower case lettering are less well conserved or not conserved in EREs. […] The data were calculated by PhosphorImager analysis. (B) The labeled cERE probe was incubated with 0.5, 1.0, 2.0 and 4.0 μg of whole cell extracts of wild type hERα, or extracts containing the mutant ERs normalized to contain the same amount of ER as the wild-type ER extract at each point. (C) Gel shift assays using the labeled pS2 ERE probes and increasing amounts (1.0, 2.0, 4.0 and 8.0 μg) of the whole cell extracts containing wild-type ER and each of the ER mutants. (D) Gel shift assays using the labeled pS2 palindrome ERE probe. The ER extract contained 2.0, 4.0 and 8.0 μg of whole cell extract (panel (i)), and 15 μg (panel (ii)). Lanes 1–7 (panel (ii)) represent wild type hERα, and mutants 3M, 3.1, 4.3, 6.2, 2 and 4, respectively. D (iii) contains a graph of the percentage of the labeled pS2 PAL probe shifted calculated by PhosphorImager analysis of the data in D(i) and D(ii).

wild type hERα = biological target: T1, wild type hERα (Homo sapiens, UniProt P03372, G400V); assay: Ligand-dependent luciferase reporter transactivation in transfected HepG2 cells; settings: for MOX-dependent increase in luciferase activity: ATL2/cERE-LUC, 10 nM MOX
T1 sequence (P03372 1-595 G400V): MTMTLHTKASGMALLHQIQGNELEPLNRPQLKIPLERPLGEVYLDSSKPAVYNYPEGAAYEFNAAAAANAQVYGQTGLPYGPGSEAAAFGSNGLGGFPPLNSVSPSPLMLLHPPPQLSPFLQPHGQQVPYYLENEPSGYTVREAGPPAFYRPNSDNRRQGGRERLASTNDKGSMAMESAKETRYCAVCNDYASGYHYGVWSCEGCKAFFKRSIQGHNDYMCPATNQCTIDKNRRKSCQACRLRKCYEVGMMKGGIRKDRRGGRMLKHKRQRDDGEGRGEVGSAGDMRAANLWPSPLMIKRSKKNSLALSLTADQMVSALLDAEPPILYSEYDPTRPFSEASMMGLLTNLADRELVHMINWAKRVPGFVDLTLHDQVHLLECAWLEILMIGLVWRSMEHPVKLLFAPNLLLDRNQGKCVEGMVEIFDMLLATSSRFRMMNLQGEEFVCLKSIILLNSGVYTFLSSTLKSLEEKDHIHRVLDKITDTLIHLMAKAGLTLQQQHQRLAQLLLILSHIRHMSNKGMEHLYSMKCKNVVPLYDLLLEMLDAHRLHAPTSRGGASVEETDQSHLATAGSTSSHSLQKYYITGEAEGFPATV
Description: HepG2 human hepatoma cells were maintained in a humidified 5% CO2 incubator at 37° C. in Dulbecco's Modified Eagle's Medium (DMEM; Sigma; St. Louis, Mo.) supplemented with 10 % charcoal-dextran-stripped fetal bovine serum (CD-FBS; Atlanta Biologicals, Inc; Atlanta, Ga.), 50,000 U/l of penicillin, and 50 mg/liter streptomycin (Life Technologies, Inc.). MCF-7 cells were routinely maintained in DMEM/Nutrient Mixture F-12 (DMEM/F12) supplemented with 10% heat-inactived FBS, 50,000 U/l of penicillin, and 50 mg/l streptomycin. CHO-S cells were maintained in DMEM/F12 supplemented with 10% heat-inactivated FBS (CD-FBS when ERs were being expressed) or 10% CD-new born calf serum (CD-NBCS, when reporter activity by different ligands were measured), 29.2 mg/l L-glutamine (Sigma), and 50,000 U/l of penicillin and 50 mg/l streptomycin.
Transient transfections in HepG2 cells was accomplished using calcium phosphate co-precipitation (Ausubel et al., 1987). Briefly, cells were plated in 12-well microplates at a density of 1×10^5 cells/well. The next day, the medium was replaced, and 2–6 hours later, precipitated calcium phosphate:DNA co-crystals were added. After 12–16 hours, the cells were shocked for 3 minutes with 20% glycerol in Tris-buffered saline, pH 7.4. Fresh medium and (if any) hormones were added. For MCF-7 and 231 cells, transient transfection was carried out using the Tfx™-20 reagent (Promega; Madison, Wis.) according to the manufacturer's direction with minor changes. Briefly, 1×10^5 cells were plated in each well of 12-well microplates one day before transfection. A 1:3 ratio of DNA to lipid was used. The DMEM/F12 medium without serum was used as carrier for the DNA-lipid mixture. After 1 hour incubation with the DNA-lipid-DMEM/F12 at 37° C., the cells were transferred to fresh DMEM/F12 supplemented with 10% CD-FBS, 50,000 U/I of penicillin, 50 mg/l streptomycin and hormones. Transfection on CHO—S cells was described as above for the preparation of ERs extraction except the medium contained 10% CD-NBCS. The cells subjected to either transfection method were harvested 48 hours post-transfection. Reporter assays were performed by lysing the cells in situ with 250 μl of passive lysis buffer (Promega). Activity was determined using the dual luciferase assay protocol according to the manufacturer's directions (Promega) on a Monolight 2010 luminometer (Analytical Luminescence, San Diego, Calif.)
Transient transfections of HepG2 cells were carried out and luciferase activity determined.

[3] = system: ATL2/PAL-LUC reporter in HepG2 cells; assay: MOX-dependent transactivation by wild-type and mutant ERs, transient transfection, luciferase reporter; type: cell-based, human; settings: 10 nM MOX
pS2 PAL probe = assay: EMSA (gel mobility shift), ER binding to pS2 PAL probe
Description: as §2
(§3) Gel mobility shift assays were performed essentially as described [Zhang, 1999 #38]. […] Free probe and protein-DNA complexes were quantitated using a phosphor imager and ImageQuant 5.0 (Molecular Dynamics, Inc., Sunnyvale, Calif.). […]
(§4) FIG. 1 (Legend) A. Panel (i), Western blots of normalized whole cell extracts of wild type hERα and mutants from transfected CHO-S cells. […] The data were calculated by PhosphorImager analysis. […] D (iii) contains a graph of the percentage of the labeled pS2 PAL probe shifted calculated by PhosphorImager analysis of the data in D(i) and D(ii).

pS2 ERE probe = assay: EMSA (gel mobility shift), ER binding to pS2 ERE probe
Description: as §2, with “Whole cell extracts were prepared as described (Zhang et al., 1996) with a modified extraction buffer (50 m-M Tris-HCl, pH 7.5, 1.5 mM EDTA, 10 mM Na2MoO4, 0.5 M NaCl, 10% glycerol, 0.5 mM β-mercaptoethanol, 50 μg/ml leupeptin, 1 μg/ml pepstatin and 5 μg/ml aprotinin).” left out
as §3
To compare binding of wild type hERα and the ER mutants to the EREs, protein titrations were performed. […] The ER:ERE complexes were then analyzed by EMSA. […]
as §4

[4] = system: ER3M-VP16 fusion proteins (N-79, N-129, C-79, C-129); assay: ATL8/PAL-LUC transactivation with CMV-driven ER3M-VP16 fusion proteins in HepG2 cells; type: cell-based, human; settings: 10 nM ICI 182,780, no OHT
Excerpt: These fragments were digested with KpnI and BamHI and then purified from agarose gels. […] To create C-129, this ER fragment was digested with XbaI and KpnI and then cloned together with the DNA fragment containing 129 amino acids of VP16 into 5.9 kb vector generated by digestion of CMV-hER with XbaI and BamHI. The same strategy was adopted to create C-79 using the DNA fragment containing 79 amino acids of VP16. Therefore, the expression of these chimeras is driven by the same CMV promoter as that of ER-3M. […] The amplified PCR product was digested with NcoI and NotI. […] This fragment and the NcoI/NotI PCR fragment were then inserted together into the 4.3 kb vector, pGL3-ATL8/PAL-LUC, which was created by digesting ATL8/PAL-LUC completely with NcoI and partially with XbaI so that the luciferase gene was replaced by N-79.

With “ER4.3: ERα DNA binding domain mutant, SEQ ID NO:8 (WGCKAFFKRSIVRPTDY; Mutant DBD of ER)” the “activation of transcription from native pS2 ERE compared with wild-type ER” value (shortened to “activation … compared with wild-type ER”) [1] was “more effectively than wild-type ER” and the “binding to, or transcription from, the Bcl2 and TGF α1 EREs” value [2] was “no detectable binding to, or transcription from”.
With “ER57.1: ERα DNA binding domain mutant, SEQ ID NO:24 (WSCKGFFKRSIKGVPTY; Mutant DBD of ER)” the “binding to cERE and pS2 ERE DNA probes” value (cERE probe) was “little or no binding”.
`C#C[C@]1(O)CC[C@H]2[C@@H]3CCc4cc(O)ccc4[C@H]3[C@@H](OC)C[C@@]21C` [MOX, moxestrol] was tested, and the “transactivation level on two copies of pS2 PAL” value (wild type hERα; ATL2/PAL-LUC, 10 nM ligand) was “undetectable”, the “MOX-dependent increase in luciferase activity” value (wild type hERα; 0.75 ng expression plasmid) was 32 fold and the “MOX-dependent increase in luciferase activity” value (wild type hERα; 2.5 ng expression plasmid) was 41 fold.
“ER15.3: ERα DNA binding domain mutant, SEQ ID NO:20 (ESCKAFFKRSIGGHNYY; Mutant DBD of ER)” was tested, and the “binding to cERE and pS2 ERE DNA probes” value (cERE probe) was “little or no binding”.
In the case of “ER4: ERα DNA binding domain mutant, SEQ ID NO:14 (WGCKAFFKRSIARGNDY; Mutant DBD of ER)”, the “activation … compared with wild-type ER” value [1] is reported as “more effectively than wild-type ER”.
For “ER3M: ERα DNA binding domain mutant, residues 203–219 as SEQ ID NO:4 (WGCKAFFKRSIAGGNDY; Mutant DBD of ER)”, the “activation … compared with wild-type ER” value [1] was “more effectively than wild-type ER” and the “binding to, or transcription from, the Bcl2 and TGF α1 EREs” value [2] was “no detectable binding to, or transcription from”.
“ER6.2: ERα DNA binding domain mutant, SEQ ID NO:10 (EGCKAFFKRSIARRLDY; Mutant DBD of ER)” was tested, and the “ability to activate transcription of the pS2 PAL reporter” value [3] was “little or no ability to activate transcription”, the “binding to pS2 PAL” value (pS2 PAL probe) was “negligible binding” and the “activation … compared with wild-type ER” value [1] was “less effective”. For the same compound, the “change in binding to pS2 ERE probe compared with cERE” value (pS2 ERE probe) was “dramatic decrease in binding”.
With “ER2.1: ERα DNA binding domain mutant, SEQ ID NO:16 (WSCKAFFKRSIAGGNDY; Mutant DBD of ER)” the “binding to cERE and pS2 ERE DNA probes” value (cERE probe) was “little or no binding”.
In the case of “ER7.2: ERα DNA binding domain mutant, SEQ ID NO:18 (EGCKAFFKRSIQRHPRY; Mutant DBD of ER)”, the “binding to cERE and pS2 ERE DNA probes” value (cERE probe) is reported as “little or no binding”.
For “ER50.1: ERα DNA binding domain mutant, SEQ ID NO:22 (WSCKGFFKRSKQGHNDY; Mutant DBD of ER)”, the “binding to cERE and pS2 ERE DNA probes” value (cERE probe) was “little or no binding”.
For “ER3.1: ERα DNA binding domain mutant, SEQ ID NO:6 (WGCKAFFKRSINRHNSY; Mutant DBD of ER)”, the “activation … compared with wild-type ER” value [1] was “less effective”.
In the case of `C[C@]12CC[C@@H]3c4ccc(O)cc4C[C@@H](CCCCCCCCC[S+]([O-])CCCC(F)(F)C(F)(F)F)[C@H]3[C@@H]1CC[C@@H]2O` (some centres unmarked) [ICI 182,780], the “effect on basal transactivation by the fusion proteins” value [4] is reported as “decreased”.
With “ER2: ERα DNA binding domain mutant, SEQ ID NO:12 (WGCKAFFKRSIARHNDY; Mutant DBD of ER)” the “activation … compared with wild-type ER” value [1] was “less effective”.

— US7153685B2 (The Board of Trustees of the University of Illinois, priority 2002, dated 2006)
